Source: patent US20050119301A1, “Treatment of restenosis” (priority 2001, published 2005)
“Also recorded” adds a separate entry of the source.

What was measured:
[1] = test system: IMA-derived human VSMC primed with PDGF BB; assay: PDGF BB-induced VSMC DNA synthesis, proliferation and cell number; format: cell-based; conditions: for proliferation of IMA cells primed with PDGF BB (in words): Cpd. 7 at concentrations as low as 0.1 nM; for effect of ER antagonist ICI 182780 on the inhibitory effect: ICI 182780 100 nmol/L
Description: Cell proliferation was induced by a variety of growth factors such as serum and platelet derived growth factor (PDGF).
Media was changed to LG serum-free DMEM and cells were treated with [^3H]-thymidine at 1 μCi/well for 3 hours. Cells were washed twice with ice cold Dulbecco's PBS. Next, ice cold 0.2M HClO4 (1 ml/well) was added and cells were incubated on ice for 30 min. Cells were then washed three times with 0.5 ml/well of ice cold 0.2M HClO4. Media (0.5 ml/well of 0.2 M NaOH) was replaced and cells were incubate at 37° C. After 1 hour, cells were treated with acetic acid (6%, 0.2 ml/well), transferred to scintillation vials with 3 ml scintillation liquid (Instagel) and counted for 2 min per vial.
The effect of Cpd. 5 and Cpd. 7 was tested further in IMA-derived human VSMC primed with PDGF BB instead of serum. […] (FIG. 12). This effect was equivalent to that observed with estradiol. Cpd.
In further experiments Cpd. […] 7 at 100 nmol/L), indicating ER-mediation. […] 7 (1-100 nmol/L).

C57/B16 mice = assay: Mouse model of neointimal hyperplasia after mechanical endothelial damage; format: in vivo; conditions: for effect on neointimal proliferation (in words) / neointimal proliferation, intimal thickness: 4 weeks after surgery; for neointimal proliferation, intimal thickness: in chow, surgery only 50±5%, no surgery 5±1%
Source text: The key feature of atherosclerosis in humans is vascular smooth muscle cell (VSMC) migration from the arterial media to the intima, followed by proliferation within the intima. The animal model of atherosclerosis used in this experiment aimed to induce VSMC migration and neointimal proliferation by mechanical damage to the endothelium. A probe was introduced into the femoral artery of the mouse and was passed through the iliac artery to the bifurcation of the aorta. The probe was then withdrawn and the femoral artery ligated to prevent haemorrhage. Colateral circulation prevents any limb-associated ischaemia. Neointimal proliferation occurred in the iliac artery over the following 4 weeks.
Proliferation was enhanced by feeding the mouse cholesterol during this time (commencing one week before surgery). At four weeks, the mice were sacrificed and the iliac vessels on both sides are harvested (the non-operated vessel was used as a control). Neointimal proliferation is expressed as the ratio of the intimal area to the intimal plus media area.
Atherosclerosis was induced in the femoral artery of each mouse by mechanically removing the endothelium using a probe. The ability of isoflavone compounds to inhibit the atherosclerotic response was assessed by comparing treatment and placebo groups. C57/B16 mice (8-10 week old male) were anaesthetized, and the right femoral artery was de-endothilialized using a dissection microscope. These mice were also fed with a 2% cholesterol diet to enhance the progression of the disease. The mice were sacrificed at week 4. Their treated (right) and control (left) arteries were both collected and fixed in formalin for histopathological evaluation.
The mice were fed a diet of 2% cholesterol mixed with normal mouse chow for a week prior to surgery. The treatment groups were fed the chow with Cpd. 5 or Cpd. 12 or Cpds. 5+12. Mice were anaesthetised with Avertin, and angioplasty of the femoral artery was performed. After surgery, the mice were moved onto a warm mat in a quiet, darkened area and their recovery closely monitored. They were housed in sterile cages with sterile bedding to avoid infection. The mice continued a diet of cholesterol mixed with normal mouse chow for the next 4 weeks. The mice were euthanased at 4 weeks postsurgery. Their femoral arteries were collected for pathological examination. Sections were evaluated by image analysis to determine the area of the various sections of the arterial wall, and the numbers of cells in each area. The primary parameter being evaluated was the increase in the intimal area, expressed as the ratio of the area of the intima versus the area of the intima plus media. The interval sections (every 50 μm, or every ten sections) were mounted and stained with H & E. The cross-sectional areas of the endothelium, intima and media were evaluated, using image analysis.

Egr-1 = assay: Early growth response gene protein in VSMC, Western blotting; format: cell-based; conditions: human VSMC
Description: (§1) To further examine the signalling pathway mediating the effect of this phytoestrogen in VSMC, the effect of Cpd. 7 on mitogen-activated protein (MAP) kinases (Erk, JUNK, p38) was determined by immunoprecipitation analysis and on early growth response genes (Egr-1, Sp-1) by Western blotting. […] 7 in a dose-dependent manner, while JUNK and p38 activity were not affected by either PDGF BB or Cpd. 7, though the cells strongly expressed both proteins as well as Erk. Egr-1 or Sp-1 proteins were not altered by either PDGF-BB or Cpd. 7.

Sp-1 = assay: as above; format: cell-based; conditions: human VSMC
Description: as §1

[2] = test system: Human umbilical vein endothelial cells; assay: Endothelial cell migration (wound) assay; format: cell-based; parameters: dose or concentration left out as unconfirmed; conditions: after 30 hours
Description: Human umbilical vein endothelial cells between passage 1 and 3 were used. They were grown in gelatin coated flasks in medium 199 with Earle's Salts supplemented with 20% foetal calf serum, 25 mg/ml endothelial cell growth supplement and 25 mg/ml heparin.
5×10^5 cells per well in growth medium were plated onto fibronectin coated 6 well trays and grown to confluence. A wound was produced along the monolayer with the use of a cell scraper (Costar). The cells were then washed once and fresh medium with the test compounds was added. Defined points along the wound were marked using an ink condenser (Olympus microscopes) allowing the movement of cells to be visualized at constant points over the next 48 hours. Photographs were taken at relevant times and the degree of cell movement from the wound front assessed.

Compound | proliferation of IMA cells primed with PDGF BB (in words) [1] | reduction of neointimal area (C57/B16 mice; 4 weeks) | effect on neointimal proliferation (in words) (C57/B16 mice) | neointimal proliferation, intimal thickness (C57/B16 mice) | PDGF BB-induced increases in cell number ([1]; 1-100 nmol/L) | inhibition at 0.001 µM ([1]; Homo sapiens, VSMC, 3 h, 1 nmol/L, read-out: inhibition of PDGF BB-induced DNA synthesis ([3H]-thymidine incorporation)) | inhibition at 0.01 µM ([1]; Homo sapiens, VSMC, 3 h, 10 nmol/L, read-out: inhibition of PDGF BB-induced DNA synthesis ([3H]-thymidine incorporation)) | inhibition at 0.1 µM ([1]; Homo sapiens, VSMC, 3 h, 100 nmol/L, read-out: inhibition of PDGF BB-induced DNA synthesis ([3H]-thymidine incorporation)) | effect of ER antagonist ICI 182780 on the inhibitory effect ([1]; compound at 100 nmol/L) | effect of ER antagonist ICI 182780 on the inhibitory effect ([1]; compound at 1-10 nmol/L) | Egr-1 protein (Egr-1) | Sp-1 protein (Sp-1) | endothelial cell migration towards the wound [2]
O=C1c2ccc(O)cc2OCC1c1ccc(O)cc1 (stereo not shown) [Cpd. 5] | no observed effect on cellular proliferation | approximately 50% | significantly reduced | 30±6% |  |  |  |  |  |  |  |  | 
Oc1ccc(C2COc3cc(O)ccc3C2O)cc1 (stereo not shown) [Cpd. 7] | inhibited proliferation |  |  |  | partly but significantly reduced | 10% | 17% | 17% | partly abolished | completely abolished | not altered | not altered | 
Oc1ccc(C2=Cc3ccc(O)cc3OC2)cc1 [Cpd. 12] |  |  | no detectable effect; also recorded: no appreciable effect on neointimal proliferation | 50±29% |  |  |  |  |  |  |  |  | markedly inhibited endothelial cell migration
